This note sets out measurements from patent US20140079636A1, “TARGETED THERAPEUTICS” (priority 2012, published 2014).

The series in a line: Tissue distribution of SDC-TRAPs in plasma and tumor (Example 14 extraction procedure). As to conditions: in vivo; Tissue Distribution Data for SDC-TRAP-0076; Time 6 h; read-out: Tumor/Plasma Ratio.

Method: In order to test the ability SDC-TRAP molecules of the invention to be specifically targeted to tumor cells, the following experiment was performed.
Using the 10 mM stock solutions of the HDC compound and its Hsp90i and drug conjugate in DMSO, spiking solutions were prepared at 0.025, 0.05, 0.1, 0.5, 1, 5, 10, 50, 100, 250, and 500 μM in DMSO. 5 μL of each spiking solution was added to a 96-deep well plate. 50 μL of matrix (plasma thawed over ice or homogenized blank tumor).
Quality control standards were prepared from 5 μL of 0.1, 1, and 10 μM calibration standard spiking solution added in triplicate into 96-deep well plate and adding 50 μL of matrix (plasma or homogenized tumor).
To prepare test samples, test plasma was diluted as needed using blank plasma. Tumor samples were pulverized in liquid nitrogen, weighed, and homogenized in PBS at 5× volume to sample weight. 50 μL of unknown plasma or homogenized tumor sample was mixed with 5 μL of DMSO. The samples were extracted by precipitating calibration standards, QC standards, and unknown samples with 200 μL of internal standard solution. The samples were mixed by vortex at room temperature for approximately 1.5 minutes, then centrifuge at 2-8° C. 150 μL of supernatant was collected and 25 μL of water added. Samples were mixed and analyzed by LC-MS/MS.

Consider `CCNC(=O)c1nnc(-c2cc(C(C)C)c(O)cc2O)n1-c1ccc(CN2CCC(C(=O)N3CCC(C(=O)OC4(CC)C(=O)OCc5c4cc4n(c5=O)Cc5c-4nc4ccc(O)cc4c5CC)CC3)CC2)cc1` (stereo not shown) [SDC-TRAP-0076, 4,11-diethyl-9-hydroxy-3,14-dioxo-3,4,12,14-tetrahydro-1H-pyrano[3′,4′:6,7]indolizino[1,2-b]quinolin-4-yl 1-(1-(4-(3-(2,4-dihydroxy-5-isopropylphenyl)-5-(ethylcarbamoyl)-4H-1,2,4-triazol-4-yl)benzyl)piperidine-4-carbonyl)piperidine-4-carboxylate], for which the Kp worked out at 7.25.
